Experiment [1] concerns p65 cleavage activity of Chlamydia. Nature of the experiment: In vitro p65 cleavage assay with solubilized chlamydial EB proteins. The format is biochemical. The following applies: 37° C. for 60 min; inhibitor added 30 min prior to p65; EDTA 5 mM, lactacystin 10 μM; FIG. 2C.
Experimental: Purified Chlamydia EB was solubilized with a buffer containing 1% NP-40. […] The graph represents the rates of p65 disappearance and p40 appearance in the same reaction. C. […] In parallel experiments, protease inhibitors were included in the in vitro p65 cleavage assay. […] Lane 4: Roche protease inhibitor cocktail at 10×; Lane 5: heat-inactivated EB; Lane 6: EDTA at 5 mM; Lane 7: Lactacystin at 10 μM; Lane 8: MG132 at 20 μM; Lane 9: TPCK at 20 μM; and Lane 10: TLCK at 20 μM. The presence of the chlamydial major outer membrane protein (MOMP) was used as a measure of EB protein input (lower panel).
In vitro p65 cleavage assays. Gradient purified chlamydial EB were solubilized with Tris-buffered saline, supplemented with 1% NP-40. The soluble proteins were collected and used for p65 cleavage assays. […] For inhibition assays, an inhibitor was added 30 min prior to the addition of p65 protein. All assays were performed at 37° C. for 60 min or as otherwise indicated.
Experiment [2] deals with Chlamydia trachomatis LGV2. Nature of the experiment: p65 cleavage in Chlamydia-infected cells treated with antibiotics (immunoblotting). The format is cell-based. The following applies: rifampin 0.1 μg/ml, chloramphenicol 60 μg/ml, penicillin G 100 μg/ml, FIG. 1E. As to the method: A. Hela 229 cells were infected with Chlamydia trachomatis LGV2 at 1 IFU/cell for varying times, or with invasive (wt) or invasion-defective (mut) Salmonella typhimurium for 2 hr. IκBα expression and degradation were detected by immunoblotting analyses. TNFα (10 ng/ml) was used as a positive control. B. Hela 229 cells were infected with LGV2 at 1 IFU/cell for 2, 16 and 24 hr. The cytosolic (C) and nuclear (N) fractions were separated and redistribution of p65/RelA was detected by immunoblotting analysis. The expression of lamin A and β-tubulin were used as loading controls for nuclear and cytosolic fractions, respectively. C. Whole cell lysates from Chlamydia-infected cells were separated by SDS-PAGE and cleavage of p65 was detected with an N- or C-terminus specific antibody against p65. D. Selective cleavage of p65 by Chlamydia infection. The expression of NF-κB pathway signaling molecules in Chlamydia-infected and non-infected control cells was determined by immunoblotting analysis. E. Inhibition of Chlamydia growth blocks p65 cleavage. The infected cells were treated with rifampin (Rif, 0.1 μg/ml) or chloramphenicol (Chl, 60 μg/ml), reagents that inhibit Chlamydia growth by blocking transcription or translation, respectively. […] The expression of β-tubulin or Erk2/MAPK was used as loading controls. All experiments were performed at least 3 times.
Infection assays. […]
In general terms: Immunoblotting shows a protein as a band on a membrane.

The subject of a further experiment is proteasomal degradation. Nature of the experiment: Detection of p22 cleavage product in cells treated with MG-132. The format is cell-based. Conditions: Chlamydia-infected cells treated with MG-132; data not shown. The text has this:
The cleavage of p65 was confirmed by the detection of a 22 kDa fragment with a C-terminus specific antibody against p65 (FIG. 1C). […] The 40 kDa fragment was further characterized with MALDI proteomics. Thus, 293T cells, transfected for GST-p65 protein expression, were infected with LGV2 for 28 hr. After purification, the cleavage product was subjected to trypsin digestion followed by MALDI TOF identification. Seven proteolytic fragments were detected, which covered the N-terminal GST tag and the RHD region of p65 (supplemental data).
Western blots. Except as noted, extracts were prepared by lysis of cells with a buffer containing 143 mM NaCl, 50 mM Tris-HCl (pH 7.5), 1 mM DTT, 1% NP-40, 0.1% SDS and protease inhibitors (Roche). Soluble proteins were separated by SDS-PAGE or Tris-Glycine gels (Novex). Blots were probed with specific antibodies. Horseradish peroxidase conjugated secondary antibodies (Sigma) and ECL reagent kit (Pierce) were used for detection.

A further experiment concerns IκBα. Nature of the experiment: IκBα degradation in Hela 229 cells (immunoblotting). The format is cell-based. Conditions: TNFα 10 ng/ml, positive control, FIG. 1A. An excerpt:
The host inflammatory response to bacterial infection or proinflammatory cytokine and LPS stimulation is mediated by NF-κB activity, which is regulated by the selective degradation of IκB proteins. Karin and Ben-Neriah, Annu. Rev. Immunol 18: 621, 2000; Richmond, Nat. Rev. Immunol 2: 664, 2002. To investigate whether Chlamydia targeted the NF-κB pathway to interfere with host inflammatory response, we first examined the integrity of IκBα, a regulatory molecule of NF-κB activation. To this end, monolayers of Hela 229 cells were infected with C. trachomatis LGV2 at 1 inclusion forming unit per cell (1 IFU/cell) for varying time points. Lad et al., J Immunol 174: 7186, 2005. […]
A. Hela 229 cells were infected with Chlamydia trachomatis LGV2 at 1 IFU/cell for varying times, or with invasive (wt) or invasion-defective (mut) Salmonella typhimurium for 2 hr. IκBα expression and degradation were detected by immunoblotting analyses. […] The cytosolic (C) and nuclear (N) fractions were separated and redistribution of p65/RelA was detected by immunoblotting analysis. […] Whole cell lysates from Chlamydia-infected cells were separated by SDS-PAGE and cleavage of p65 was detected with an N- or C-terminus specific antibody against p65. […] The expression of NF-κB pathway signaling molecules in Chlamydia-infected and non-infected control cells was determined by immunoblotting analysis. […]

The subject of experiment [3] is NF-κB. Nature of the experiment: pIL8-luciferase reporter gene assay in 293T cells. It is filed as cell-based, human. The following applies: TNFα 10 ng/ml, FIG. 3C, 3D. As to the method: (§1) We therefore investigated whether expression of CT441 interfered with NF-κB signal transduction. To this end, 293T cells were transfected with pIL8-luciferase (Kim et al., Cancer Res 65: 8784, 2005) and a plasmid for CT441 expression. The cells were then treated with TNFα to induce luciferase expression. In parallel experiments, we also included a mouse cell line for control purposes since murine p65 is resistant to cleavage by Chlamydia infection. […] The p40 cleavage product (amino acid residues 1-351) was then investigated for its inhibitory effect on TNFα-induced NF-κB activation.
(§2) A. Putative chlamydial proteases were expressed as N-terminal HA-tagged proteins in 293T cells and screened for their ability to cleave p65. […] 441, 494, 823 and 858 represent chlamydial CT441, CT494, CT823, and CT858, respectively. […] Monolayers of 293T or NIH3T3 cells were co-transfected with pIL8-Luc (Kim et al., Cancer Res 65: 8784, 2005) and a plasmid for the expression of chlamydial protease CT441 or the p40 cleavage product of p65. pSV40-RL was included as an internal control for transfection reactions. The cells were treated with TNFα (10 ng/ml) 18 hr post transfection to induce luciferase expression. Luciferase activities were determined with a Dual-Glo reagent kit (Promega) 18 hr after TNFα treatment. The ratio of firefly and Renilla luciferase activities (FL/RL) was plotted. […]
(In general: A reporter such as luciferase makes a cellular process visible.)

Another experiment relates to p65. Nature of the experiment: Expression of putative chlamydial proteases in 293T cells, cleavage of endogenous p65 (Western blot). It is filed as cell-based, human. The following applies: N-terminal HA-tagged proteins expressed in 293T cells; FIG. 3A, 3B.
Source text: The chlamydial genome encodes 16 proteases (Stephens et al., Science 282: 754, 1998), including four putative proteases that contain a leader sequence for periplasmic secretion and potential translocation by the chlamydial type III secretory system. The mature peptides of those putative proteases were therefore screened for their ability to cleave p65 after expression in 293T cells. […] CT441 encodes a tail-specific protease (Tsp) that is well conserved among Chlamydia species.
as §2, with “plotted. All transfections were performed in duplicate and the data are presented as means +/− error.” for “plotted.”

Experiment [4] has as its system NF-κB. Nature of the experiment: pIL8-luciferase reporter gene assay in NIH3T3 cells. It is filed as cell-based, mouse. The following applies: TNFα 10 ng/ml, FIG. 3C. As to the method:
as §1, §2

The values that follow come from patent US20080124338A1, “METHODS FOR TREATMENT OF INFLAMMATORY DISEASE AND CHLAMYDIA INFECTIOUS DISEASE” (The Scripps Research Institute, priority 2006, published 2008).

“Also recorded” adds a separate entry of the source. Peptide text beside a SMILES is read from it. * marks the point of attachment. Cbz = O=C(OCc1ccccc1)*

For the molecule `CC(=O)N[C@@H](CSC(=O)[C@]1([C@@H](O)C(C)C)NC(=O)[C@H](C)[C@@H]1O)C(=O)O` [lactacystin], the “p65 cleavage activity of Chlamydia (solubilized EB proteins)” value in experiment [1] is listed as “inhibited p65 cleavage activity”.

For the molecule `CO[C@H]1/C=C/O[C@@]2(C)Oc3c(C)c(O)c4c(O)c(c(/C=N/N5CCN(C)CC5)c(O)c4c3C2=O)NC(=O)/C(C)=C\C=C\[C@H](C)[C@H](O)[C@@H](C)[C@@H](O)[C@@H](C)[C@H](OC(C)=O)[C@@H]1C` [rifampin], the “Chlamydia cleavage of p65” value in experiment [2] is given as “blocked”.

Take `CC(C)C[C@@H](C=O)NC(=O)[C@H](CC(C)C)NC(=O)[C@H](CC(C)C)NC(=O)OCc1ccccc1` [MG-132] (Cbz-Leu-Leu-Leu-aldehyde): the “detection of p22” value with proteasomal degradation is reported as “Enhanced detection of p22”.

Regarding `O=C(N[C@H](CO)[C@H](O)c1ccc([N+](=O)[O-])cc1)C(Cl)Cl` [chloramphenicol], the “Chlamydia cleavage of p65” value in experiment [2] is “blocked”.

As to TNFα, the IκBα degradation result in the experiment on IκBα is listed as “caused IκBα degradation”.

B1: p40: N-terminal p40 cleavage product of p65/RelA, amino acid residues 1-351 of SEQ ID NO:1 (protein, listed as Homo Sapiens)
chain: MDELFPLIFPAEPAQASGPYVEIIEQPKQRGMRFRYKCEGRSAGSIPGERSTDTTKTHPTIKINGYTGPGTVRISLVTKDPPHRPHPHELVGKDCRDGFYEAELCPDRCIHSFQNLGIQCVKKRDLEQAISQRIQTNNNPFQVPIEEQRGDYDLNAVRLCFQVTVRDPSGRPLRLPPVLPHPIFDNRAPNTAELKICRVNRNSGSCLGGDEIFLLCDKVQKEDIEVYFTGPGWEARGSFSQADVHRQVAIVFRTPPYADPSLQAPVRVSMQLRRPSDRELSEPMEFQYLPDTDDRHRIEEKRKRTYETFKSIMKKSPFSGPTDPRPPPRRIAVPSRSSASVPKPAPQPYPF
modifications: Myc tag
For B1, the “TNFα-induced luciferase activity (NF-κB activation)” value in the experiment on NF-κB [3] is reported as “inhibited luciferase expression; also recorded: inhibited NF-κB activity”.

B2: CT858: chlamydial protease detected during an infection but not in purified EB (protein)
chain: MKMNRIWLLLLTFSSAIHSPVQGESLVCKNALQDLSFLEHLLQVKYAPKTWKEQYLGWDLVQSSVSAQQKLRTQENPSTSFCQQVLADFIGGLNDFHAGVTFFAIESAYLPYTVQKSSDGRFYFVDIMTFSSEIRVGDELLEVDGAPVQDVLATLYGSNHKGTAAEESAALRTLFSRMASLGHKVPSGRTTLKIRRPFGTTREVRVKWRYVPEGVGDLATIAPSIRAPQLQKSMRSFFPKKDDAFHRSSSLFYSPMVPHFWAELRNHYATSGLKSGYNIGSTDGFLPVIGPVIWESEGLFRAYISSVTDGDGKSHKVGFLRIPTYSWQDMEDFDPSGPPPWEEFAKIIQVFSSNTEALIIDQTNNPGGSVLYLYALLSMLTDRPLELPKHRMILTQDEVVDALDWLTLLENVDTNVESRLALGDNMEGYTVDLQVAEYLKSFGRQVLNCWSKGDIELSTPIPLFGFEKIHPHPRVQYSKPICVLINEQDFSCADFFPVVLKDNDRALIVGTRTAGAGGFVFNVQFPNRTGIKTCSLTGSLAVREHGAFIENIGVEPHIDLPFTANDIRYKGYSEYLDKVKKLVCQLINNDGTIILAEDGSF
modifications: left off: small tags and cut ends
notes: chlamydial protease detected during an infection but not in purified EB
In the case of B2, the “p65 cleavage after expression in 293T cells” value with p65 is listed as “did not exhibit p65 cleavage activity”.

B3: CT441: Chlamydia trachomatis tail-specific protease, SEQ ID NO:2 (protein, listed as Chlamydia trachomatis)
chain: MMRFARFCLLVLTLFPQLAFSAEPLRRQDVRKTVDKLVEHHIDTQQISPYILSRSLEDYVRSFDSHKAYLTQDEVFSHAFSEEATRPLFKQYQEDNFSSFKELDTCIQQSISRAREWRSSWLTDSIRVIQDAMSHTIEKKPSAWASSIEEVKQRQYDLLLSYASIYLEDAAKNRYQGKEHALVKLCIRQIENHENPYIGINDHGYRMSPEEEANSFHVRIIKSIAHSLDAHTAYFSQEEALSMRAQLEKGMCGIGVVLKEDIDGVVVKEVLAGGPADKTGSLRVGDIIYRVNGKNIENTPFPGVLDSLRGSPGSSVTLDIHRQNNDHVIQLRREKILLDSRRVDVSYEPYGNGIIGKITLHSFYEGENQVSSEQDLRKAIRELQEKNLLGLVLDIRENTGGFLSQAIKVSGLFLTNGVVVVSRYADGSVKRYRTISPQKFYDGPLAVLVSKSSASAAEIVAQTLQDYGVALIVGDQQTYGKGTIQHQTITGSNSQEDFFKVTVGRYYSPSGKSTQLEGVKSDIVIPSRYAEDKLGERFLEYALPADQYENVINDNLGDLDINIRPWFQKYYSPHLQKPELVWREMLPQLAHNSQERLEKNKNFEIFVQHLKKTNKQDRSFGSNDLQMEESVNIVKDMILLKSIS
Consider B3, for which the TNFα-induced luciferase expression entry with NF-κB [4] was “showed no effect”. Also, the “p65 cleavage after expression in 293T cells” value in the experiment on p65 was “caused p65 cleavage; also recorded: resulted in selective cleavage of p65”. Moreover, the “TNFα-induced luciferase activity (NF-κB activation)” value in the experiment with NF-κB [3] is given as “inhibited TNFα-induced luciferase activity; also recorded: inhibited NF-κB activity”.
